# In US5030638A, “Method of antiviral enhancement” (priority 1990, dated 1991):
# pIC50: −log10 of the molar value. Where two headings read alike, the source gives them in different places.
# How the values were obtained:
# [1] = test system: HIV-1, strain HTLV-IIIB; test: Reduction of cytopathogenic effect (CPE) in HIV-1 infected CEM cells, MTT assay; type: cell-based
# Method: These tests involved plating of susceptible human host cells which are syncytium-sensitive with and without virus in microculture plates, adding various concentrations of the test compound, incubating the plates for 9 days (during which time infected, non-drug treated control cells are largely or totally destroyed by the virus), and then determining the number of remaining viable cells using a colorimetric endpoint.
# Tissue culture plates were incubated at 37° C. in a humidified, 5% CO2 atmosphere and observed microscopically for toxicity and/or cytopathogenic effect (CPE). At 2 and 6 days after infection, fresh dilutions of each test article were prepared from the frozen stock, and a 20 μl volume of each dilution (prepared as a 10× concentration was added to the appropriate wells of both infected and uninfected cells.
# On the 9th day post-infection, the cells in each well were resuspended and a 100 μl sample of each cell suspension was removed for use in an MTT assay. A 20 μl volume of a 5 mg/ml solution of 3-(4,5-dimethylthiazol-2-yl)-2,5-diphenyltetrazolium bromide (MTT) was added to each 100 μl cell suspension, and the cells were incubated at 37° C. in 5% CO2 for 4 hours. […] A 100 μl volume of a solution of 10% sodium dodecyl sulfate in 0.01N hydrochloric acid wa added to each sample, and the samples were incubated overnight. The absorbance at 590 nm was determined for each sample using a Molecular Devices Vmax microplate reader. This assay detects drug-induced suppression of viral CPE, as well as drug cytotoxicity, by measuring the generation of MTT-formazan by surviving cells.
# Assays were done in 96-well tissue culture plates. CEM cells were treated with polybrene at a concentration of 2 μg/ml, and an 80 μl volume of cells (1×10^4 cells) was dispensed into each well. A 100 μl volume of each test article dilution (prepared as a 2× concentration) was added to 5 wells of cells, and the cells were incubated at 37° C. for 1 hour. A frozen culture of HIV-1, strain HTLV-IIIB, was diluted in culture medium to a concentration of 5×10^4 TCID50 per ml, and a 20 μl volume (containing 10^3 TCID50 of virus) was added to 3 of the wells for each test article concentration. […] A 20 μl volume of normal culture medium was added to the remaining wells to allow evaluation of cytotoxicity. Each plate contained 6 wells of untreated, uninfected, cell control samples and 6 wells of untreated, infected, virus control samples. Dideoxycytidine (DDC) and dideoxyadenosine (DDA) were included as positive control compounds.
# [2] = test system: almond β-glucosidase; test: Beta-glucosidase inhibition assay, pH 4.8; type: biochemical; conditions: for pIC50: read-out: Enzyme Inhibition-IC50, Almond β-Glucosidase pH 4.8
# Method: (§1) Yeast alpha-glucosidase and almond beta-glucosidase activities were measured by a modification of the method of Evans, et al., Phytochemistry 22, 768-770 (1983). The modifications included 1) assay of activities at pH 7.4 in HEPES (N-2-hydroxyethylpiperazine-N'-2-ethanesulfonic acid) buffer, 2) measurement in 96 well microtiter plates and 3) inclusion of 10% DMSO in control and test samples.
# (§2) The release of p-nitrophenol from the substrate p-nitrophenylglycoside was measured spectrophotometrically in the presence and absence of test compound. Each assay included a known inhibitor of the enzyme as a standard.
# To 100 μl 50 mM sodium citrate buffer, pH 4.8, in a microtiter plate, add 15 μl test compound in DMSO (DMSO alone in control), 20 μl (0.017 units) beta-glucosidase (Sigma) in citrate buffer and pre-incubate at room temperature for 15 minutes. Add 25 μl 2.50 mM p-nitrophenyl-beta-D-glucopyranside in citrate buffer, as substrate. […] Add 50 μl 0.4M NaOH. Read absorption change at 405 nm in a Biotek EIA Autoreader. Each sample was tested in triplicate. […] Castanospermine was used as standard inhibitor.
# [3] = molecular target: T1, yeast α-glucosidase (Saccharomyces cerevisiae, UniProt P53341); test: Alpha-glucosidase inhibition assay, pH 7.4; type: biochemical
# T1 construct: purchased Sigma
# T1 sequence (P53341 whole entry): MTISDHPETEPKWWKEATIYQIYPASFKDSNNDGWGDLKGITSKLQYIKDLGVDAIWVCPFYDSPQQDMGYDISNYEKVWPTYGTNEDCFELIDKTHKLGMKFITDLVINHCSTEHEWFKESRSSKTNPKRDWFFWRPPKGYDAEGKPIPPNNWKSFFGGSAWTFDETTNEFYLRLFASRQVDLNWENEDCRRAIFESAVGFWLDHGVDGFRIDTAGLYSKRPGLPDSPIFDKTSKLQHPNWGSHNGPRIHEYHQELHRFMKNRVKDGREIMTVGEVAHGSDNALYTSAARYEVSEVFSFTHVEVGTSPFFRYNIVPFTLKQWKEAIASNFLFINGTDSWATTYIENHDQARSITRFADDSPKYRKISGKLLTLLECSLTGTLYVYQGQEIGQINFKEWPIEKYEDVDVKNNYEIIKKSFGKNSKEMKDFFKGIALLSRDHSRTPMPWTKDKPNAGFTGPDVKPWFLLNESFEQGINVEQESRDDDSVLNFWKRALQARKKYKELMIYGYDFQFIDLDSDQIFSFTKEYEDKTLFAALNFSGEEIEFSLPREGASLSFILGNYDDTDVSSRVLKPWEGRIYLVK
# Method: as §1, §2
# To 100 μl 50 mM HEPES buffer, pH 7.4, in a microtiter plate, add 20 μl test compound in DMSO (DMSO alone in control), 40 μl (0.013 units) yeast alpha-glucosidase (Sigma) in HEPES buffer and pre-incubate at room temperature for 15 minutes. Add 40 μl 1.25 mM p-nitrophenyl-alpha-D-glucopyranoside (Sigma) in HEPES buffer, as substrate, and monitor absorbance change at 405 nm in Biotek EIA Auto-reader. Absorption change was measured at 15 to 25 minutes (reaction was linear for at least 30 minutes). Each sample was tested in triplicate. […] Deoxynojirimycin was used as standard inhibitor.
# [4] = test system: almond β-glucosidase; test: Beta-glucosidase inhibition assay, pH 7.4; type: biochemical; conditions: for Inhibition Index (first, head is drawing 3) / Inhibition Index (second, head is drawing 4): ratio of IC50 values; for Inhibition Index (first, head is drawing 3): numerically almond pH 4.8 / almond pH 7.4; for Inhibition Index (second, head is drawing 4): numerically yeast α pH 7.4 / almond β pH 7.4; for Enzyme Inhibition, Almond β-Glucosidase pH 7.4 / pIC50: pH 7.4; for pIC50: read-out: Enzyme Inhibition-IC50, Almond β-Glucosidase pH 7.4
# Method: as §1, §2
# To 100 μl 50 mM HEPES buffer, pH 7.4, in a microtiter plate, add 20 μl test compound in DMSO (DMSO alone in control), 40 μl (0.136 units) beta-glucosidase (Sigma) in HEPES buffer and pre-incubate at room temperature for 15 minutes. Add 40 μl 1.25 mM p-nitrophenyl-beta-D-glucopyranoside in HEPES buffer, as substrate and monitor absorbance change at 405 nm in a Biotek EIA Autoreader. Absorption change was measured at 15 to 25 minutes (reaction is linear for at least 30 minutes). Each sample was tested in triplicate. […] Castanospermine was used as standard inhibitor.
# [5] = test system: Sheep choroid plexus (SCP) cells; test: Toxicity in control wells (without virus) of the plaque reduction assay; type: cell-based; set-up: key: 0: no toxicity; 4: total cell lysates; conditions: graded 0 to 4
# Method: (§3) Sheep choroid plexus(SCP) cells were obtained from American Type Culture Collection (ATCC) catalogue number CRL 1700 and were routinely passaged in vitro in Dulbecco's Modified Eagles (DME) medium supplemented with 20% fetal bovine serum (FBS). SCP cells were passaged once per week at a 1:2 or 1:3 split ratio. Visna was titrated by plaque assay in six-well plates. Virus pools were stored at -70° C.
# (§4) SCP cells were cultured in 6-well plates to confluence. Wells were washed two times with serum free Minimal Essential Medium (MEM) to remove FBS. 0.2 ml of virus was added per well in MEM supplemented with 4 mM glutamine and gentamycin. After 1 hour adsorption, the virus was aspirated from each well. The appropriate concentration of each compound in 5 ml of Medium 199 (M-199) supplemented with 2% lamb serum, 4 mM glutamine, 0.5% agarose and gentamycin was added to each well. […] To terminate the test: cultures were fixed in 10% formalin, the agar removed, the monolayers stained with 1% crystal violet and plaques counted. Each compound concentration was run in triplicate. […] 0 is no toxicity observed while 4 is total lysing of the cell monolayer.
# Toxicity graded on 0 to 4 scale 0 = no toxicity, 4 = total cell lysates
# [6] = test system: visna virus; test: Plaque reduction assay, inhibition of visna virus in vitro; type: cell-based; conditions: Visna-maedi virus, read-out: Antiviral Activity (plaque reduction)
# Method: as §3, §4
# [7] = test system: HIV; conditions: cited from earlier work
# [8] = molecular target: glucosidase I; conditions: Schweden et al.; compared to N-methyl- and N-butyl-derivatives; cited from earlier work
smiles,measurement,setting,value
"Nc1ccn([C@H]2CC[C@@H](CO)O2)c(=O)n1 [DDC, Dideoxycytidine, reference compound]",inhibition at 0.01 µg/mL,"[1]; Human immunodeficiency virus 1, IIIB, CCRF-CEM, 216 h, 0.01 μg/ml, read-out: Percent Reduction of CPE",41.5%
same,inhibition at 0.032 µg/mL,"[1]; Human immunodeficiency virus 1, IIIB, CCRF-CEM, 216 h, 0.032 μg/ml, read-out: Percent Reduction of CPE",73.9%
same,IC50,"[1]; Human immunodeficiency virus 1, IIIB, CCRF-CEM, 216 h, HIV-1, CEM cells, reduction of CPE, read-out: ID50 (median inhibitory dose)",0.01 µg/mL
"O=c1[nH]cnc2c1ncn2[C@H]1CC[C@@H](CO)O1 [DDI, reference compound]",Percent Reduction of CPE,"[1]; 1.0 μg/ml, 12960 min",28.3%
same,Percent Reduction of CPE,"[1]; 3.2 μg/ml, 12960 min",49.6%
same,Percent Reduction of CPE,"[1]; 10 μg/ml, 12960 min",75.6%
same,ID50 (median inhibitory dose),"[1]; HIV-1, CEM cells, reduction of CPE, 12960 min",3.0 µg/mL
"CCCCCCCCCCCCCCN1C[C@H](O)[C@@H](O)[C@H](O)[C@H]1CO [Example 4, 1,5-(Tetradecylimino)-1,5-dideoxy-D-glucitol]","Enzyme Inhibition, Almond β-Glucosidase pH 4.8",[2]; at 10 μM,22%
same,inhibition at 10 µM,"[3]; pH 7.4, at 10 μM, read-out: Enzyme Inhibition, Yeast α-Glucosidase pH 7.4",0%
same,"Enzyme Inhibition, Almond β-Glucosidase pH 7.4",[4]; at 10 μM,31%
same,Toxicity,[5]; 10 μM,1
same,Toxicity,[5]; 0.1 mM,4
same,Toxicity,[5]; 1 mM,4
same,inhibition at 10 µM,[6]; 10 μM,84%
same,inhibition at 100 µM,[6]; 0.1 mM,100%
same,inhibition at 1000 µM,[6]; 1 mM,100%
"CCN1C[C@H](O)[C@@H](O)[C@H](O)[C@H]1CO [Ethyl, reference compound]",pIC50,[2],~3.00
same,inhibition at 1000 µM,"[3]; pH 7.4, read-out: Enzyme Inhibition, Yeast α-Glucosidase pH 7.4",51%
same,reduction of the yield of infectious HIV,[7]; Karpas et al.,three
same,"Enzyme Inhibition, Almond β-Glucosidase pH 7.4",[4]; at 1 mM,67%
same,"Inhibition Index (first, head is drawing 3)",[4],~ 1
same,"Inhibition Index (second, head is drawing 4)",[4],~ 1
"Cc1cn([C@H]2C[C@H](N=[N+]=[N-])[C@@H](CO)O2)c(=O)[nH]c1=O [AZT, 3'-azido-3'-deoxythymidine]",HIV inhibitory / antiviral activity,[7]; literature,inhibit replication of the virus in vitro
"CCCCCN1C[C@H](O)[C@@H](O)[C@H](O)[C@H]1CO [Example 1, 1,5-(Pentylimino)-1,5-dideoxy-D-glucitol]",pIC50,[2],3.37
same,pIC50,"[3]; pH 7.4, read-out: Enzyme Inhibition-IC50, Yeast α-Glucosidase pH 7.4",3.35
same,pIC50,[4],4.82
same,"Inhibition Index (first, head is drawing 3)",[4],28.2
same,"Inhibition Index (second, head is drawing 4)",[4],29.5
"O[C@@H]1[C@@H](O)[C@@H](O)CN2CC[C@H](O)[C@@H]12 [L-1,6-diepicastanospermine]",HIV inhibitory / antiviral activity,[7]; literature,"neither the epimer L-1,6-diepicastanospermine nor the stereoisomer of castanospermine, L-6-epicastanospermine, were found to be inhibitory"
"CN1C[C@H](O)[C@@H](O)[C@H](O)[C@H]1CO [Methyl, N-methyl-deoxynojirimycin, reference compound]",pIC50,[2],3.44
same,pIC50,[3],4.27
same,HIV inhibitory / antiviral activity,[7]; literature,significant antiviral activity
same,HIV inhibitory / antiviral activity,"[7]; literature, listed as N-methyl derivative of deoxynojirimycin (DNJ)",activity against HIV
same,pIC50,[4],3.99
same,"Inhibition Index (first, head is drawing 3)",[4],3.5
same,"Inhibition Index (second, head is drawing 4)",[4],0.53
"CCCCCCCCCCN1C[C@H](O)[C@@H](O)[C@H](O)[C@H]1CO [N-decyl-derivatives, reference compound]","Ki, glucosidase I",[8],greater Ki values than the N-methyl- and N-butyl-derivatives
O[C@@H]1[C@@H](O)[C@@H](O)CN2CC[C@@H](O)[C@@H]12 [L-6-epicastanospermine],HIV inhibitory / antiviral activity,[7]; literature,"neither the epimer L-1,6-diepicastanospermine nor the stereoisomer of castanospermine, L-6-epicastanospermine, were found to be inhibitory"
O[C@H]1[C@H](O)[C@@H](O)CN2CC[C@H](O)[C@H]12 [castanospermine],HIV inhibitory / antiviral activity,[7]; literature,inhibition of the cytopathic effect (CPE)
same,reduction in virion infectivity,[7]; literature,only a modest reduction in virion infectivity
